Measurements: US10195185B2, “3-(1H-imidazo[4,5-C]pyridin-2-yl)-1H-pyrazolo[4,3-B]pyridines and therapeutic uses thereof” (Samumed, LLC, priority 2015, dated 2019)

Tests used:
Assay type in all cases: cell-based
[1] = test system: Wnt activity (Wnt-responsive human Sp5 promoter, TCF/LEF binding sites) in SW480 colon carcinoma cells; test: Wnt activity screening assay: Sp5-Luc luciferase reporter gene in SW480 cells; conditions: for EC50: 10-point dose-response from 10 μM, incubated overnight; for inhibition at 10 µM: given for EC50 of >10 μM, read-out: percent inhibition at 10 μM
Method in brief: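 Wnt-driven firefly luciferase in SW480 colon carcinoma cells reports pathway activity after overnight compound exposure (10 μM top concentration, 3-fold steps). Signal is normalized to DMSO controls.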

SW480 colon cancer cells = test: Cell viability assay (CellTiter-Blue), four days; conditions: Homo sapiens, 96 h; for EC50: CellTiter-Blue cell viability; for inhibition at 10 µM: read-out: percent inhibition at 10 μM (given for EC50 of >10 μM)
Method in brief: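 Resazurin reduction (Ex 560/Em 590 nm, ~3 h reagent incubation) served as the viability read-out after SW480 cells were treated for four days at 37 °C. Doses ran from 10 μM down to 0.0045 μM in eight 1:3 steps. Curves fitted non-linearly for EC50, else % inhibition at 10 μM reported.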

[2] = test system: IL-6 in human monocyte cell line (THP-1 cells); test: IL-6 inhibition in LPS-stimulated THP-1 cells (HTRF); conditions: IL-6 in LPS-stimulated THP-1 cells; for EC50: HTRF; for inhibition at 10 µM: read-out: percent inhibition in brackets beside EC50 >10 μM
Method in brief: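 Readout is the 665/620 nm HTRF ratio for secreted IL-6, normalized to DMSO wells, with EC50 from a variable-slope four-parameter fit, or % inhibition at 10 μM when above 10 μM. Cells (1% FBS, 24 h beforehand) got compound for 2 h, then LPS 500 ng/mL for 22 h at 37° C; top dose 10 μM, 0.1% DMSO.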

Row | EC50 [1] | EC50 (SW480 colon cancer cells) | EC50 [2] | SMILES | inhibition at 10 µM [2] | inhibition at 10 µM [1] | inhibition at 10 µM (SW480 colon cancer cells)
1 | > 10 µM | > 10 µM | > 10 µM | Cn1cc(-c2ccc3[nH]nc(-c4nc5c(-c6ccc7c(c6)OCO7)nccc5[nH]4)c3n2)c(CO)n1 [Compound 1151, (4-(3-(4-(Benzo[d][1,3]dioxol-5-yl)-1H-imidazo[4,5-c]pyridin-2-yl)-1H-pyrazolo [4,3-b]pyridin-5-yl)-1-methyl-1H-pyrazol-3-yl)methanol] | 0% | 33.9% | 3.7%
2 | 3.83 µM | 4.3 µM | 1.46 µM | c1cc2[nH]c(-c3n[nH]c4ccc(-c5cncc(OCCN6CCCC6)c5)nc34)nc2c(-c2ccoc2)n1 [Compound 690, 3-(4-(Furan-3-yl)-1H-imidazo[4,5-c]pyridin-2-yl)-5-(5-(2-(pyrrolidin-1-yl)ethoxy)pyridin-3-yl)-1H-pyrazolo[4,3-b]pyridine] |  |  | 
3 | > 10 µM | > 10 µM | > 10 µM | Cn1cc(-c2ccc3[nH]nc(-c4nc5c(-c6ccc(F)cc6)nccc5[nH]4)c3n2)c(CO)n1 [Compound 1128, (4-(3-(4-(4-Fluorophenyl)-1H-imidazo[4,5-c]pyridin-2-yl)-1H-pyrazolo[4,3-b]pyridin-5-yl)-1-methyl-1H-pyrazol-3-yl)methanol] | 0% | 19.6% | 9.1%
4 | 0.421 µM | > 10 µM | > 10 µM | COc1cccc(-c2nccc3[nH]c(-c4n[nH]c5ccc(-c6cccnc6)nc45)nc23)c1 [Compound 994, 3-(4-(3-Methoxyphenyl)-1H-imidazo[4,5-c]pyridin-2-yl)-5-(pyridin-3-yl)-1H-pyrazolo[4,3-b]pyridine] | 18.6% |  | 0%
5 | > 10 µM | > 10 µM | > 10 µM | COc1cccc(-c2nccc3[nH]c(-c4n[nH]c5ccc(-c6cncc(NC(=O)Cc7ccccc7)c6)nc45)nc23)c1 [Compound 1000, N-(5-(3-(4-(3-methoxyphenyl)-1H-imidazo[4,5-c]pyridin-2-yl)-1H-pyrazolo [4,3-b]pyridin-5-yl)pyridin-3-yl)-2-phenylacetamide] | 11.4% | 31.1% | 25.5%
6 | 0.837 µM | 5.88 µM | > 10 µM | Cn1cc(-c2ccc3[nH]nc(-c4nc5c(-c6cc(F)cc(CNS(C)(=O)=O)c6)nccc5[nH]4)c3n2)cn1 [Compound 764, N-(3-Fluoro-5-(2-(5-(1-methyl-1H-pyrazol-4-yl)-1H-pyrazolo [4,3-b]pyridin-3-yl)-1H-imidazo[4,5-c]pyridin-4-yl)benzyl)methanesulfonamide] | 0% |  | 

The next lines start with the compound.

Row | SMILES | EC50 [1] | EC50 (SW480 colon cancer cells) | EC50 [2] | inhibition at 10 µM [2] | inhibition at 10 µM [1] | inhibition at 10 µM (SW480 colon cancer cells)
7 | c1ccc(CNCc2cncc(-c3ccc4[nH]nc(-c5nc6c(-c7ccsc7)nccc6[nH]5)c4n3)c2)cc1 [Compound 304, N-Benzyl-1-(5-(3-(4-(thiophen-3-yl)-1H-imidazo[4,5-c]pyridin-2-yl)-1H-pyrazolo [4,3-b]pyridin-5-yl)pyridin-3-yl)methanamine] | 3.65 µM | 3.91 µM | > 10 µM | 0% |  | 
8 | FC1(F)CCN(Cc2cncc(-c3ccc4[nH]nc(-c5nc6c(-c7ccsc7)nccc6[nH]5)c4n3)c2)C1 [Compound 306, 5-(5-((3,3-difluoropyrrolidin-1-yl)methyl)pyridin-3-yl)-3-(4-(thiophen-3-yl)-1H-imidazo[4,5-c]pyridin-2-yl)-1H-pyrazolo[4,3-b]pyridine] | 1.01 µM | 1.12 µM | 3.66 µM |  |  | 
9 | CC(C)C(=O)Nc1cncc(-c2ccc3[nH]nc(-c4nc5c(-c6cccnc6)nccc5[nH]4)c3n2)c1 [Compound 93, N-(5-(3-(4-(Pyridin-3-yl)-1H-imidazo[4,5-c]pyridin-2-yl)-1H-pyrazolo[4,3-b]pyridin-5-yl)pyridin-3-yl)isobutyramide] | > 10 µM | > 10 µM | > 10 µM | 25.1% | 25.1% | 5.9%
10 | CN1CCN(c2nccc3[nH]c(-c4n[nH]c5ccc(-c6cncnc6)nc45)nc23)CC1 [Compound 251, 3-(4-(4-Methylpiperazin-1-yl)-1H-imidazo[4,5-c]pyridin-2-yl)-5-(pyrimidin-5-yl)-1H-pyrazolo[4,3-b]pyridine] | > 10 µM | > 10 µM | > 10 µM | 8.3% | 17.7% | 0%
11 | CC(C)Nc1cncc(-c2ccc3[nH]nc(-c4nc5c(-c6cccnc6)nccc5[nH]4)c3n2)c1 [Compound 96, N-Isopropyl-5-(3-(4-(pyridin-3-yl)-1H-imidazo[4,5-c]pyridin-2-yl)-1H-pyrazolo[4,3-b]pyridin-5-yl)pyridin-3-amine] | 0.994 µM | 1.98 µM | 2.75 µM |  |  | 
12 | CN1CCN(c2nccc3[nH]c(-c4n[nH]c5ccc(-c6cncc(NC(=O)C7CCCC7)c6)nc45)nc23)CC1 [Compound 246, N-(5-(3-(4-(4-Methylpiperazin-1-yl)-1H-imidazo[4,5-c]pyridin-2-yl)-1H-pyrazolo [4,3-b]pyridin-5-yl)pyridin-3-yl)cyclopentanecarboxamide] | > 10 µM | > 10 µM | > 10 µM | 37.7% | 15% | 0%
13 | O=C(Cc1ccccc1)Nc1cncc(-c2ccc3[nH]nc(-c4nc5c(-c6ccncc6)nccc5[nH]4)c3n2)c1 [Compound 122, 2-phenyl-N-(5-(3-(4-(pyridin-4-yl)-1H-imidazo[4,5-c]pyridin-2-yl)-1H-pyrazolo[4,3-b]pyridin-5-yl)pyridin-3-yl)acetamide] | > 10 µM | > 10 µM | 1.24 µM |  | 1% | 3.2%
14 | CN(C)Cc1cncc(-c2ccc3[nH]nc(-c4nc5c(N6CCCCC6)nccc5[nH]4)c3n2)c1 [Compound 181, N,N-Dimethyl-1-(5-(3-(4-(piperidin-1-yl)-1H-imidazo[4,5-c]pyridin-2-yl)-1H-pyrazolo [4,3-b]pyridin-5-yl)pyridin-3-yl)methanamine] | > 10 µM | 4.69 µM | > 10 µM | 36.5% | 8.4% | 
15 | CCC(=O)Nc1cncc(-c2ccc3[nH]nc(-c4nc5c(-c6cccc(F)c6)nccc5[nH]4)c3n2)c1 [Compound 1, N-(5-(3-(4-(3-Fluorophenyl)-1H-imidazo[4,5-c]pyridin-2-yl)-1H-pyrazolo [4,3-b]pyridin-5-yl)pyridin-3-yl)propionamide] | > 10 µM | > 10 µM | > 10 µM | 0% | 29.8% | 28%
16 | CN(C)c1cncc(-c2ccc3[nH]nc(-c4nc5c(N6CCCCC6)nccc5[nH]4)c3n2)c1 [Compound 175, N,N-Dimethyl-5-(3-(4-(piperidin-1-yl)-1H-imidazo[4,5-c]pyridin-2-yl)-1H-pyrazolo [4,3-b]pyridin-5-yl)pyridin-3-amine] | 3.89 µM | 1.99 µM | > 10 µM | 0% |  | 
